Data on 4 compounds can be found in ChEMBL document CHEMBL1201862, “PubChem BioAssay data set” (2004).

For test [1], the target named is T1, Sentrin-specific protease 8 (Homo sapiens, UniProt Q96LD8).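 Note: luminescence read-out of SENP8 inhibition, dose-response confirmation following an ultra-high-throughput screen.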
T1 sequence (Q96LD8 whole entry): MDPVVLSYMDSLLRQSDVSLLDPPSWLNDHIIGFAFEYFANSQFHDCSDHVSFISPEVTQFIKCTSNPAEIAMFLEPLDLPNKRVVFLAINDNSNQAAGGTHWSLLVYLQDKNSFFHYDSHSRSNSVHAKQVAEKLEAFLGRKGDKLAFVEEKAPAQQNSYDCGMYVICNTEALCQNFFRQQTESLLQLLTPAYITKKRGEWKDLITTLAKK
In kind it is functional.

Test [2] has as its target T2, Sentrin-specific protease 7 (Homo sapiens, UniProt Q9BQF6).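 Note: Luminescence-based dose-response confirmation of ultra-high-throughput screening hits, measuring inhibition of SENP7.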
T2 sequence (Q9BQF6 whole entry): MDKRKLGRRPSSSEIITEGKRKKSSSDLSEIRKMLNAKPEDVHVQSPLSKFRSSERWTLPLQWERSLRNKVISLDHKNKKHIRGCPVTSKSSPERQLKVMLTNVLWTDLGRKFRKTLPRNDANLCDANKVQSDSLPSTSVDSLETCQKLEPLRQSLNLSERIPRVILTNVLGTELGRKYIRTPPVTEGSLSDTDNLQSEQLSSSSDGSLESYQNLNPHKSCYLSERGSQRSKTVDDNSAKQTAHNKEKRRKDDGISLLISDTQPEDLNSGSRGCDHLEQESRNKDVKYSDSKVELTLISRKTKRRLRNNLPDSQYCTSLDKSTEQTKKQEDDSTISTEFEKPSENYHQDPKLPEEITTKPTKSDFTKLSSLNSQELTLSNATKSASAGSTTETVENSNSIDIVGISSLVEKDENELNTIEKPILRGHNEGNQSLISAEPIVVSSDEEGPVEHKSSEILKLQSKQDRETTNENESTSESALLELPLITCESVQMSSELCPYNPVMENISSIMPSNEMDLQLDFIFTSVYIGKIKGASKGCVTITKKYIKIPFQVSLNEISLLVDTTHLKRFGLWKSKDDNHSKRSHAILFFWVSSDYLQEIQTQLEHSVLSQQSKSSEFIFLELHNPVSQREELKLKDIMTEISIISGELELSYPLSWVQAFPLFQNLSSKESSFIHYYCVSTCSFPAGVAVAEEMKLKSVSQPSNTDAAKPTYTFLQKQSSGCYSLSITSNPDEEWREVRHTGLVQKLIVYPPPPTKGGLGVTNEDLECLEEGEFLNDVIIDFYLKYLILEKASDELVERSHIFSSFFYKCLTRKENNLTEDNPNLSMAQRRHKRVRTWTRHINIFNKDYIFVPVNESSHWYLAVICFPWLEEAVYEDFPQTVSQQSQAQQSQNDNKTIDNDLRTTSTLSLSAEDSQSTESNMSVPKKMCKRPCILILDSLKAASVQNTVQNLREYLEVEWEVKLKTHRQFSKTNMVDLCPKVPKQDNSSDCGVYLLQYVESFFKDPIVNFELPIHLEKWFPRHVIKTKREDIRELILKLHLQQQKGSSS
It is filed as functional.

A further test relates to Vero. Nature of the test: Vero cell cytotoxicity, cytotoxicity control for flavivirus capping enzyme inhibitors (AID 588742). In kind it is functional. The note with it: Chlorocebus sabaeus.
Test [3] deals with BJ. The test is described as follows: cells. In kind it is functional, cell-based. The following applies: Homo sapiens.
Test [4] is described as follows: Luminescence Cell-Based Dose Confirmation HTS to Identify Inhibitors of Platelet Dense Granule Release. [Related pubchem assays: 1663 (Primary HTS), 1678 (Summary of Project)]. In kind it is functional.
In the next test the target is T3, Caspase-3 (Homo sapiens, UniProt P42574).
T3 sequence (P42574 whole entry): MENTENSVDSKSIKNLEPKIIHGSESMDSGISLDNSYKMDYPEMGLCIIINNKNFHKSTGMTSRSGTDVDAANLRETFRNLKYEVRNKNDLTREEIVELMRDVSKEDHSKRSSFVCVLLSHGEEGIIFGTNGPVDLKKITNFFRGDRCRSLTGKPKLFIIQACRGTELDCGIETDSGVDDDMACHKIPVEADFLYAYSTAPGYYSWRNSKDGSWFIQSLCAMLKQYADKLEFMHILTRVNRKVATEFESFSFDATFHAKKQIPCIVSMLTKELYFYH
Nature of the test: caspase-3 enzyme inhibitors, selectivity check, dose response, selectivity assay for caspase-6 allosteric inhibitor project, biochemical, fluorescence, cherry-picked samples (AID 743291).

Test [5] deals with BJ. Nature of the test: cytotoxicity toward BJ-TERT fibroblasts, dose response, cell-based, RAS-independent, luminescence (AID 1933). The note with it: Homo sapiens. It is filed as functional.
In a further test the target is Paired box protein Pax-8 (Homo sapiens, UniProt Q06710). Nature of the test: inhibitors of PAX8-driven TPO luciferase reporter, dose response, RMG-I cells, cherry-pick (AID 687027).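 Note: luciferase reporter driven by Pax8 target thyroperoxidase promoter measured by SteadyGlo luminescence.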 It is filed as functional, cell-based.
A short description of test [6]: control 3'UTR Renilla luciferase suppression, dose response, counter-screen for Shn3 inhibitor project, cell-based, Clone20-Shn3RL, cherry-picked (AID 624133). It is filed as functional.
For test [7], the target named is Mitogen-activated protein kinase kinase kinase 20 (Homo sapiens, UniProt Q9NYL2). It is filed as functional.
For test [8], the target named is RAC-gamma serine/threonine-protein kinase (Homo sapiens, UniProt Q9Y243). It is filed as functional.
Test [9] addresses Serine/threonine-protein kinase Nek2 (Homo sapiens, UniProt P51955). In kind it is functional.
The target in test [10] is Eukaryotic elongation factor 2 kinase (Homo sapiens, UniProt O00418). It is filed as functional.
In test [11] the target is Receptor-type tyrosine-protein kinase FLT3 (Homo sapiens, UniProt P36888). In kind it is functional.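 Note: FLT3 was tested as one member of a kinome-wide kinase panel.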
The target in test [12] is Protein kinase C delta type (Homo sapiens, UniProt Q05655). In kind it is functional.
The target of test [13] is Serine/threonine-protein kinase MRCK alpha (Homo sapiens, UniProt Q5VT25). In kind it is functional.
The target in test [14] is Serine/threonine-protein kinase PAK 1 (Homo sapiens, UniProt Q13153). It is filed as functional.
In test [15] the target is Serine/threonine-protein kinase D2 (Homo sapiens, UniProt Q9BZL6). In kind it is functional.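 Note: measured against PRKD2 as one member of a kinome-wide kinase profiling panel.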
The target of test [16] is Tyrosine-protein kinase JAK3 (Homo sapiens, UniProt P52333). In kind it is functional.
For the next test, the target named is LIM domain kinase 1 (Homo sapiens, UniProt P53667). The test is described as follows: Navigating the Kinome. Panel member name: LIMK1. In kind it is functional.
Test [17] has as its target Homeodomain-interacting protein kinase 4 (Homo sapiens, UniProt Q8NE63). It is filed as functional.
For test [18], the target named is Receptor tyrosine-protein kinase erbB-2 (Homo sapiens, UniProt P04626). The test is described as follows: Navigating the Kinome. Panel member name: ERBB2. In kind it is functional.
The target in test [19] is Cyclin-dependent kinase 1 (Homo sapiens, UniProt P06493). It is filed as functional.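 Note: Kinome-wide panel profiling, with the target listed as panel member CDC2.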
In test [20] the target is Protein-tyrosine kinase 6 (Homo sapiens, UniProt Q13882). In kind it is functional.

Molecules are shown by their SMILES. The source made the active and inactive calls.

Sequence of Homeodomain-interacting protein kinase 4 (Q8NE63 whole entry): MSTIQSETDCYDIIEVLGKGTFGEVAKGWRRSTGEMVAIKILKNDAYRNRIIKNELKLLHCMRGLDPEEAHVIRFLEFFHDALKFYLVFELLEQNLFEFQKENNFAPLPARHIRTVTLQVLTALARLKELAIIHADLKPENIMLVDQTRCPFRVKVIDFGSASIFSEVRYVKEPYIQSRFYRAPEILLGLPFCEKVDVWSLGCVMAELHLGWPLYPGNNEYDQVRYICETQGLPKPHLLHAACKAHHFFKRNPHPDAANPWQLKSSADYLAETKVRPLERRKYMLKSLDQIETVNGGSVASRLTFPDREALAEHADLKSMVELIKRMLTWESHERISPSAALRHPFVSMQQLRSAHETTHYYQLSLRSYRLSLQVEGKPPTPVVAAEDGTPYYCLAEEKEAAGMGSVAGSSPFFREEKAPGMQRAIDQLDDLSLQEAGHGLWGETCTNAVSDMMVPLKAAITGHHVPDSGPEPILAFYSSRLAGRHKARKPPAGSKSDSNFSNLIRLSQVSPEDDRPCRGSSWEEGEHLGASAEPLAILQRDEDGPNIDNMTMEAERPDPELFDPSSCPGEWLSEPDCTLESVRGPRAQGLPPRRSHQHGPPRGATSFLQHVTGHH
Sequence of RAC-gamma serine/threonine-protein kinase (Q9Y243 whole entry): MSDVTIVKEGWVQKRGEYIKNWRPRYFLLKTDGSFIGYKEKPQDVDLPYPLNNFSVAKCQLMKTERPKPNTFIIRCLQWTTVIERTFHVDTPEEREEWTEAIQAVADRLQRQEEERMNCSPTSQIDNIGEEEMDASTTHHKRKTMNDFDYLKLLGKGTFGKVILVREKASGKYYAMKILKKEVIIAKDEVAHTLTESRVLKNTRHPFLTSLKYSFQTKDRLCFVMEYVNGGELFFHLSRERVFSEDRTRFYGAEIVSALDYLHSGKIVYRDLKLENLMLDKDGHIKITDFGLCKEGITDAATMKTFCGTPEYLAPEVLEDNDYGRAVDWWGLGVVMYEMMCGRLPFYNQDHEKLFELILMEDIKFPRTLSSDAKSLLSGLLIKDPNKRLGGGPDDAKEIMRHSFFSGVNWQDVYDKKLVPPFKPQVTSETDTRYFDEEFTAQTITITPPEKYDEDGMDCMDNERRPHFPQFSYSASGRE
Sequence of Receptor tyrosine-protein kinase erbB-2 (P04626 whole entry): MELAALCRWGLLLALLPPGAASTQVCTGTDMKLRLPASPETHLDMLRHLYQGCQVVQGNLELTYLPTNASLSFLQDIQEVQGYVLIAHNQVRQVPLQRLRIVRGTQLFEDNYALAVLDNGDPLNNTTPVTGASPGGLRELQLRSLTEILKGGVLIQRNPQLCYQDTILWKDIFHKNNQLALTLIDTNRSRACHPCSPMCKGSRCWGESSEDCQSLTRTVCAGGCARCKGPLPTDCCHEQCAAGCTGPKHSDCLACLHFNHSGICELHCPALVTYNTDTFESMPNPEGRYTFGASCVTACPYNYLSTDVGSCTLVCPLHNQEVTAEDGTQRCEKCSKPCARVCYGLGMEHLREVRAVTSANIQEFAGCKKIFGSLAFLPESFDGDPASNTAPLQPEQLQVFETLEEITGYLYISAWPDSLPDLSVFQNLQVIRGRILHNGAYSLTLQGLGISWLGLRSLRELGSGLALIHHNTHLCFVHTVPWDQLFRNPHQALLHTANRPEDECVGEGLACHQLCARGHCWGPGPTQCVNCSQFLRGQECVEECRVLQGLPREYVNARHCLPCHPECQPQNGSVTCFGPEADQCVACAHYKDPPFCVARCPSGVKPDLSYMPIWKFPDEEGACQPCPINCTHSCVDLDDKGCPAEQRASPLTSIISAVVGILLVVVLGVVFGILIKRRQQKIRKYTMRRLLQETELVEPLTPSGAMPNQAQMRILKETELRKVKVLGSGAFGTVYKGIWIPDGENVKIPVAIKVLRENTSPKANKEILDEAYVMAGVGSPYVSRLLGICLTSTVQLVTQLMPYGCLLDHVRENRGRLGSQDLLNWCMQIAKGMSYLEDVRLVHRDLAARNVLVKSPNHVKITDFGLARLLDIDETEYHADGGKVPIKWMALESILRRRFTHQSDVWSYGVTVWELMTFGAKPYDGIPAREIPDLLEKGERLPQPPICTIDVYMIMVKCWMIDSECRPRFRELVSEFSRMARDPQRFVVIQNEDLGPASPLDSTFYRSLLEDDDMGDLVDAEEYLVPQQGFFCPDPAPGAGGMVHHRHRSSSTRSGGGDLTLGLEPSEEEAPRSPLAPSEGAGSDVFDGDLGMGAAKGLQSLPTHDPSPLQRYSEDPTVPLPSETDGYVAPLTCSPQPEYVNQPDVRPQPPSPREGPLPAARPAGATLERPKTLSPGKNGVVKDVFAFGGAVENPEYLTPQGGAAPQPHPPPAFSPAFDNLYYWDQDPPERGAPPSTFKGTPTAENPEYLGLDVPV
Sequence of Tyrosine-protein kinase JAK3 (P52333 whole entry, the tested form may be a part): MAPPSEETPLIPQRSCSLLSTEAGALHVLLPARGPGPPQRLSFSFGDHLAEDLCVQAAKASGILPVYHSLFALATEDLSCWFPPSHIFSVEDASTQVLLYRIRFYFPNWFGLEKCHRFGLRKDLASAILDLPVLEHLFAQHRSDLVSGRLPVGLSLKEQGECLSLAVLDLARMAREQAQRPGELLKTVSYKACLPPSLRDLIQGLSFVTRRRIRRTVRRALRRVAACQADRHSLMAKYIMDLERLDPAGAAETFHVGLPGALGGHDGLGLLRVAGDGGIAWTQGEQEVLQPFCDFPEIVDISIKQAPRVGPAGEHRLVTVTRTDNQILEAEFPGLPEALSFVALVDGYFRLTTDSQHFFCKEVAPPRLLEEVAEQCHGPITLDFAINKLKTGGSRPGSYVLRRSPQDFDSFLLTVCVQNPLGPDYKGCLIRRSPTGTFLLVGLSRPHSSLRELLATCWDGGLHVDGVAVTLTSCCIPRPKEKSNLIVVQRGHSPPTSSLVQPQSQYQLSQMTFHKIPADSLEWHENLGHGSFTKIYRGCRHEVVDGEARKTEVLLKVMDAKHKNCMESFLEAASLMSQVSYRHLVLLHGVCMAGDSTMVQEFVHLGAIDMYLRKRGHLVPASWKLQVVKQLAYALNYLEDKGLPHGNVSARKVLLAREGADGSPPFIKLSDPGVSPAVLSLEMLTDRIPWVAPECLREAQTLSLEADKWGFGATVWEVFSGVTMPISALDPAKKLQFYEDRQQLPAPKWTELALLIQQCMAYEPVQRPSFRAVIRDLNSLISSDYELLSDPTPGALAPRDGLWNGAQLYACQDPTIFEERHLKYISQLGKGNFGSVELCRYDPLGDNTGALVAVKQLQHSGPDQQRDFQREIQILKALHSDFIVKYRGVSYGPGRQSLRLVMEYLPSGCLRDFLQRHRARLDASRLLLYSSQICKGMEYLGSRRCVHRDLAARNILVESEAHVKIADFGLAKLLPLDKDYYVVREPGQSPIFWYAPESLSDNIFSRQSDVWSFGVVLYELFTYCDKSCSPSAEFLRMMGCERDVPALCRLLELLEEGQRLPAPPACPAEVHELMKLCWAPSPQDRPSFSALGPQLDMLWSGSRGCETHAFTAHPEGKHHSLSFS
Sequence of Receptor-type tyrosine-protein kinase FLT3 (P36888 whole entry): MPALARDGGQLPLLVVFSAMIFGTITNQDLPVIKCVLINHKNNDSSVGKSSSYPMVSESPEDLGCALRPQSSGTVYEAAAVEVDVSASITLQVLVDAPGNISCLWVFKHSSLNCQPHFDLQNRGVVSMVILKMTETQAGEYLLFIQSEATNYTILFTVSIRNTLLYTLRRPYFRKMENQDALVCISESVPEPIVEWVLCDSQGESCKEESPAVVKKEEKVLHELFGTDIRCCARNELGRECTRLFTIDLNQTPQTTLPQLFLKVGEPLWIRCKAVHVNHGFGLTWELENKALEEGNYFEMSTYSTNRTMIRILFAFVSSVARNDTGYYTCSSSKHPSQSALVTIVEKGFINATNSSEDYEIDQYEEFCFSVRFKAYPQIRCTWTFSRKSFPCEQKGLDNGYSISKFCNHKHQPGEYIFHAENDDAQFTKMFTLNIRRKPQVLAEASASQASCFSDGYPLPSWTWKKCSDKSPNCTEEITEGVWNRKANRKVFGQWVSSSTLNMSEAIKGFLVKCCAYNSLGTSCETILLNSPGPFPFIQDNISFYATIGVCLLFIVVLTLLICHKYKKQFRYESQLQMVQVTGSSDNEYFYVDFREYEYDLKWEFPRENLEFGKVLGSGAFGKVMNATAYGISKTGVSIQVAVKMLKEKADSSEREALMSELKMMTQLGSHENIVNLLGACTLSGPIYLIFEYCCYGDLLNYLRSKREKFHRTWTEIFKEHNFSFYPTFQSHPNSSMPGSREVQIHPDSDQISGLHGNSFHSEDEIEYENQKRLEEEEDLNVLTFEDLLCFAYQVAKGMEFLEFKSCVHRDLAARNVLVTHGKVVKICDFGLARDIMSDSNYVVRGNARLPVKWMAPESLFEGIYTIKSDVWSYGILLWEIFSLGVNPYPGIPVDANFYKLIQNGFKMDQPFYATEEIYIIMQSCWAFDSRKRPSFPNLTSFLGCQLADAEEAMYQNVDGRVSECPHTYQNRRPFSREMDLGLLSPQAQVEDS
Sequence of Serine/threonine-protein kinase Nek2 (P51955 whole entry): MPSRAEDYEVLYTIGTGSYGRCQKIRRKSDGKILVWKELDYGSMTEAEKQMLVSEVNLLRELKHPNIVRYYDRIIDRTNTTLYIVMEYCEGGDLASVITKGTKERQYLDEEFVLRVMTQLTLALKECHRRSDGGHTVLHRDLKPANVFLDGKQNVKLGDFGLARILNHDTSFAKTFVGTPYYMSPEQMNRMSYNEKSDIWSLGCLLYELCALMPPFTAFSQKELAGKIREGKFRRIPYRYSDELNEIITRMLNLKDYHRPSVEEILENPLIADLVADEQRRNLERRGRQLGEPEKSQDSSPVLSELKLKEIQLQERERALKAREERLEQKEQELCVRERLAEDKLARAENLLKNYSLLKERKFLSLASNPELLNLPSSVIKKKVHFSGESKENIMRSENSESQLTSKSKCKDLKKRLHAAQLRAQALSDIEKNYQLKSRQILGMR

As to `Cc1ccc(C(=O)NC2(O)C(=O)c3ccccc3C2=O)cc1C`, the results for the IC50 in test [1] and in [2] were 4.89 µM (active) and 4.4 µM (active), respectively.

In the case of `O=[N+]([O-])c1c(Nc2ccccn2)cc(Cl)c2nonc12`, in the test on Vero, the CC50 was 16.8 µM (active). For the same compound, the EC50 was 5.38 µM (active) in the test with BJ [3], 3.55 µM (active) in test [4] and 5.14 µM (inconclusive) with BJ [5]. Moreover, at Caspase-3, the AC50 is 7.84 µM (active).

`CC[C@@H](C)[C@H](CNC)NC[C@@H](Cc1cccc2ccccc12)NCCc1cccc(C(F)(F)F)c1`: the AC50 on Paired box protein Pax-8 was 11.9 µM (active); in [6], 3.28 µM (active).

As for `CC(C)(CO)CNc1nccc(-c2c(-c3ccc(F)cc3)nc3c(CC4CC4)nccn23)n1`, the Ki in test [7] was > 7.94 µM (inactive); in test [8] it was > 10 µM (inactive); in [9] it was > 10 µM (inactive); in [10], > 3.98 µM (inactive); in test [11], > 2.51 µM (inactive); in test [12], > 7.94 µM (inactive). In addition, the Ki in test [13] was > 10 µM (inactive); in [14] it was > 10 µM (inactive); in test [15] it was > 10 µM (inactive); in test [16], > 1.58 µM (inactive); at LIM domain kinase 1 it was 0.126 µM (active); in test [17], > 7.94 µM (inactive). The Ki in [18] is > 1.58 µM (inactive); in test [19], > 7.94 µM (inactive); in test [20] it was > 2.51 µM (inactive).

Broadly, the IC50 is the concentration at which inhibition is half-maximal. Usually CC50 stands for the concentration at which the toxic effect on the cells reaches its halfway point. In general, EC50 refers to the concentration that produces a half-maximal response. As usually defined, the AC50 is the concentration at which the activity in the assay is half-maximal. The term Ki denotes a measure of affinity in units of concentration, obtained from inhibition or displacement.
